Reference: ChEMBL document CHEMBL2169808, “Discovery of pyrazole carboxylic acids as potent inhibitors of rat long chain L-2-hydroxy acid oxidase” (Bioorg Med Chem Lett, 2012)

Key:
[1] = target: T1, 2-Hydroxyacid oxidase 2 (Homo sapiens) (UniProt Q9NYQ3); assay: Inhibition of human Hao2-mediated oxidation of 2-hydroxyoctanoic acid assessed as proportionate release of H2O2 at 10 uM
T1 sequence (whole entry): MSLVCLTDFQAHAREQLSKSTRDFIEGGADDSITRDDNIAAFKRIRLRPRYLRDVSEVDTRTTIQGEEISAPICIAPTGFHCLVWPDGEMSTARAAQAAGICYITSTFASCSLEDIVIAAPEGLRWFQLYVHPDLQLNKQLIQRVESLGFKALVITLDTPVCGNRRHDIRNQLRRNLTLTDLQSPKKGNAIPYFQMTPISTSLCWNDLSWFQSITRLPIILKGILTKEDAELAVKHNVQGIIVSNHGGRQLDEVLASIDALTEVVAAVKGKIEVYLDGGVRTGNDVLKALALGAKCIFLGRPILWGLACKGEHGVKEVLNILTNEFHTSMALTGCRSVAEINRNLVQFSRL

Rattus norvegicus = organism: Rattus norvegicus; assay: Selectivity ratio of IC50 for rat Hao1 to IC50 for rat Hao2
[2] = target: T1, 2-Hydroxyacid oxidase 2 (Homo sapiens); assay: Inhibition of human Hao2-mediated oxidation of 2-hydroxyoctanoic acid assessed as proportionate release of H2O2 at 1 uM
[3] = target: T2, 2-Hydroxyacid oxidase 2 (Rattus norvegicus) (UniProt Q07523); assay: Inhibition of rat Hao2-mediated oxidation of 2-hydroxyoctanoic acid assessed as proportionate release of H2O2 at 1 uM
T2 sequence (whole entry): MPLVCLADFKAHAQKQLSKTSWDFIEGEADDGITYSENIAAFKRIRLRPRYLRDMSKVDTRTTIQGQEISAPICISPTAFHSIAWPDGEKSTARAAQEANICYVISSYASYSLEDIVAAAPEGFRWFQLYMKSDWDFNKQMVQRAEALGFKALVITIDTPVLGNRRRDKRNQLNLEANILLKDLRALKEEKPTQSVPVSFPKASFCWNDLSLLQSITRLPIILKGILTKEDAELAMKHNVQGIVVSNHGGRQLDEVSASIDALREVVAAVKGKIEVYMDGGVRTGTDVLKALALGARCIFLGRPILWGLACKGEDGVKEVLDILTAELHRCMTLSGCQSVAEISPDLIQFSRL

[4] = target: T2, 2-Hydroxyacid oxidase 2 (Rattus norvegicus); assay: Inhibition of rat Hao2-mediated oxidation of 2-hydroxyoctanoic acid assessed as proportionate release of H2O2 at 10 uM
2-Hydroxyacid oxidase 2 = target: T3, 2-Hydroxyacid oxidase 2 (Homo sapiens, UniProt Q9NYQ3); assay: Inhibition of human Hao2-mediated oxidation of 2-hydroxyoctanoic acid assessed as proportionate release of H2O2
T3 sequence (Q9NYQ3 whole entry): T1 sequence (whole entry)

inhibition [1]	Ratio IC50 (Rattus norvegicus)	inhibition [2]	inhibition [3]	inhibition [4]	IC50 (2-Hydroxyacid oxidase 2)	Structure (SMILES)
66%	> 150	26%	47%	87%	–	Cc1n[nH]c(C(=O)O)c1Cc1cc2ccccc2o1
6%	> 150	0%	33%	85%	–	Cc1n[nH]c(C(=O)O)c1Cc1ccc(C#N)cc1
–	–	–	35%	79%	0.95 µM	Cc1n[nH]c(C(=O)O)c1-c1cccc(-c2ccc(F)cc2)c1
16%	> 150	5%	31%	81%	–	Cc1n[nH]c(C(=O)O)c1CCc1ccc(F)cc1
56%	> 150	11%	21%	73%	–	Cc1n[nH]c(C(=O)O)c1Cc1ccccc1-c1ccc(F)cc1
22%	> 150	3%	40%	69%	–	Cc1n[nH]c(C(=O)O)c1Cc1ccc(C(=O)O)cc1
0%	> 150	3%	7%	60%	–	Cc1n[nH]c(C(=O)O)c1Cc1cccc(C(=O)O)c1
12%	> 150	9%	35%	71%	–	Cc1n[nH]c(C(=O)O)c1Cc1ccc(C(F)(F)F)cc1
49%	> 150	9%	10%	69%	–	Cc1n[nH]c(C(=O)O)c1Cc1ccccc1Oc1ccccc1
55%	> 150	19%	13%	65%	–	Cc1n[nH]c(C(=O)O)c1-c1ccc(-c2ccc(F)cc2)cc1
